Measured values: patent US20160113911A1, “METHODS AND COMPOSITIONS FOR THE TREATMENT OF CANCER” (THE GENERAL HOSPITAL CORPORATION, priority 2013, published 2016)
Entries after “also recorded” stand apart in the source; their conditions may differ.

Key:
Format in all cases: cell-based, human
translation initiation = assay: Polysome profiles; settings: 293T cells
KDM4A = KDM4A protein levels by western blot; settings: RPE cells; 1% O2
Description: Western blot analyses were performed according to (Black et al., 2010).
Western blots were performed as in (Black et al., 2010). Briefly, adherent cells were either scraped directly into PBS, or washed with PBS, trypsinized and collected by centrifuging at 2,000 RPM for 5 minutes. For preparation of whole-cell lysates, cell pellets were washed once in ice-cold PBS and resuspended in RIPA lysis buffer [50 mM Tris pH 7.4, 150 mM NaCl, 0.25% Sodium Deoxycholate, 1% NP40, 1 mM EDTA, 10% Glycerol] supplemented with complete protease inhibitor and PhosSTOP™ phosphatase inhibitor cocktails (Roche). Cells were lysed on ice for 15 minutes and immediately frozen at −80° C. for 10 min. Lysates were subsequently sonicated at 70% amplitude for 15 minutes in a QSonica Q800R™ and cleared of cell debris by centrifuging at 12,000 RPM for 15 minutes, before being analyzed by western blotting. For HIF1α expression, adherent cells were washed twice with ice-cold PBS and scraped directly in warmed 1× Laemmli buffer. Samples were sonicated at 70% amplitude for 15 minutes and boiled immediately prior to western blotting.

HEK 293T cells [1] = assay: Monitored cell proliferation assay (xCELLigence growth curves, doubling time); settings: HEK293T
Description: Seventy two hours post transfection 1×10^4 HEK 293T cells were seeded per well of a 96 well plate, and then treated after 24h. Cell proliferation was monitored with an xCELLigence system (Roche) (Vistejnova et al., 2009).

overall translation = assay: Translation assay (AHA incorporation, Click-IT); settings: HEK 293T; 24h; 250 nM JIB-04 and 0.1 ng/ml Rapamycin
Description: Translation assays were performed following supplier's instructions from Click-IT™ Metabolic Labeling Reagents for Proteins (Life Technologies). Cells were incubated in presence of DMEM without Cysteine and Methionine for 1 h, then grown in presence of 50 μM AHA (L-azidohomoalanine, Life Technologies C10102) for 2h, harvested and washed extensively with PBS. Cells were lysed in 1% SDS in 50 mM Tris pH8 with 10% Glycerol and sonicated using a bath sonicator (QSonica™ Q800R) for 30 min. The Click-IT reactions were performed following the supplier's instructions from Click-IT™ Protein Reaction Buffer Kit (Life Technologies). Briefly, 50 μg to 100 μg of lysates were used per reaction with 40 μM Alkyne-Biotin (Life Technologies B10185), and 10 μg were assayed by western blot using a Streptavidin antibody conjugated to HRP.

HEK 293T cells [2] = assay: MTT proliferation and viability assay; settings: JIB-04 vs vehicle, 48h
Description: For tissue culture and generation of stable cell lines see (Black et al., 2010). Rapamycin (LC Laboratories) and AZD8055 (Selleckchem) were used at indicated concentrations. […] JIB-04 (Xcessbio) was used at a final concentration of 250 nM. For the translation assays, DMEM depleted of Methionine and Cysteine (Life Technologies 21013-024) was used.
MTT assays were performed following supplier's instructions from the Cell Proliferation Kit I™ (MTT) from Roche. Briefly, 1×10^4 cells were seeded per well of a 96 well plate and grown for 24h before treatment. Forty-eight hours later, cells were assayed.

[3] = system: 1q12h copy gain in RPE cells; assay: FISH for site-specific copy gain; settings: RPE cells; 1% O2 24 hours; JIB-04 62.5 nM or 2 mM succinate pre-treatment, or overexpression
Description: FISH was performed as described in (Manning et al., 2010). Probes for 1q12h, 1q telomere, and chromosome 2, 6, 8, and X alpha satellite were purchased from Rainbow Scientific. Probes for 1q12 (RP11-80L2), Xq13.2 (RP11-451A22), Xq13.1 (RP11-177A4) were purchased as BAC clones from Children's Hospital Oakland Research Institute (CHORI BacPac) FISH verified clone repository. Oligonucleotide probes for 1q21.2 (BCL9) and 1q23.3 were purchased from Agilent (SureFISH). BACS were prepared utilizing PureLink HiPure Plasmid Filter Maxiprep kit (Life Technologies) using the recommended modified wash buffer. Probes were nick translated (Abbot Molecular Kit) in the presence of fluorescently labeled dTTP (Enzo Life Science). Images of multiple planes of fields of nuclei were acquired on an Olympus IX81 Spinning Disk Microscope and analyzed using Slidebook 5.0 software. We used a conservative scoring metric for copy gain. Any foci that were touching were scored as a single foci to prevent increased numbers due to normally replicated foci. For RPE cells, copy gain was scored as any cell with 3 or more distinct foci. For 293T cells, copy gain was scored for any cell with 5 or more distinct foci. For RPE cells each experiment includes at least one replicate from the two different polyclonal stable cell preparations. At least 100 cells for each replicate were scored for all experiments except analysis of single cell clones.
Cells were plated onto culture dishes and allowed to adhere for 20-24 hrs in normoxia (5% CO2, 21% O2, and 74% N2). For hypoxic treatment, cells were maintained in a HERA Cell 150™ incubator (Thermo Scientific) flushed with 5% CO2, 1% O2 or 4% O2, and balanced with N2 for the duration of the experiment. Incubator calibrations were carried out by Bianchi Associates Calibrations/Verifications.
To release, cells were washed twice with culture medium pre-conditioned in normoxia or hypoxia, and supplied with fresh pre-conditioned media. For JIB-04 treatment, normoxic cells were pre-treated with 62.5 nM JIB-04 (Xcessbio) for 24 hrs, then treated again with JIB-04 and either transferred to 1% O2 or maintained in normoxia for an additional 24 hrs. Succinate was administered at a final concentration of 2 mM and cells were either maintained in normoxia for 72 hrs or maintained in normoxia for 48 hrs prior to being transferred to 1% O2 for 24 hrs.
FISH was performed as described in (Black et al., 2013; Manning et al., 2010). Probes for 1q12h, 1q telomere, chromosome 8 centromere (alpha satellite), and X centromere (alpha satellite) were purchased from Rainbow Scientific. Probes for Xq13.1 (RP11-177A4), Zebrafish BCL9 (CH73-15J19) and Zebrafish IGBP1 (CH73-223D24) were purchased as BAC clones from Children's Hospital Oakland Research Institute (CHORI BacPac) clone repository. Probes for 1q21.2 (BCL9) and 1q23.3 were purchased from Agilent (SureFISH).
FISH was performed as described in (Black et al., 2013; Manning et al., 2010). Probes for 1q12h, 1q telomere, chromosome 8 centromere (alpha satellite), and X centromere (alpha satellite) were purchased from Rainbow Scientific. Probes for Xq13.1 (RP11-177A4), Zebrafish BCL9 (CH73-15J19) and Zebrafish IGBP1 (CH73-223D24) were purchased as BAC clones from Children's Hospital Oakland Research Institute (CHORI BacPac) clone repository. Probes for 1q21.2 (BCL9) and 1q23.3 were purchased from Agilent (SureFISH). BACS were prepared utilizing PureLink HiPure™ Plasmid Filter Maxiprep kit (Life Technologies) using the recommended modified wash buffer. Probes were nick translated (Abbot Molecular Kit) in the presence of fluorescently labeled dTTP (Enzo Life Science). Images of multiple planes of fields of nuclei were acquired on an Olympus IX81 T Spinning Disk Microscope and analyzed using Slidebook™ 5.0 software. A conservative scoring metric was used for copy gain. Any foci that were touching were scored as a single copy to prevent increased numbers due to normally replicated foci.

RPE cells = assay: Flow cytometry cell cycle analysis; settings: normoxia and hypoxia
Description: Asynchronously growing, or G1/S arrested cells were prepared and fixed as in (Black et al., 2010). Cells were stained with 10 μM EdU for 1 hour prior to collection. Cell cycle was analyzed by PI staining or EdU incorporation using Click-IT EdU™ Flow Cytometry Assay Kit (Life Technologies). Flow cytometry of CD4+ T cells and cell cycle distribution were analyzed using a BD FACS ARIA II™.

## Clc1ccc(N/N=C(\c2ccccc2)c2ccccn2)nc1 [JIB-04]
Translation initiation; JIB-04 250 nM and Rapamycin 0.1 ng/ml
  polysome profile, JIB-04 with Rapamycin: can sensitize cells to Rapamycin by increasing their translation initiation defect
Translation initiation; JIB-04 250 and 500 nM
  polysome profile, JIB-04 alone: leads to a translation initiation defect
KDM4A
  KDM4A protein levels in hypoxia: did not substantially alter KDM4A protein levels in hypoxia
HEK 293T cells [1]; 250 nM JIB-04 and 1 ng/ml of Rapamycin
  cell sensitivity to Rapamycin (doubling time between 5 h and 35 h): increases cell sensitivity to Rapamycin
HEK 293T cells [1]; 250 nM JIB-04 and 50 nM of AZD8055
  cell sensitivity to AZD8055 (doubling time between 5 h and 35 h): increases cell sensitivity to AZD8055
Overall translation
  overall translation with JIB-04 and Rapamycin: enhanced the alteration of translation observed after Rapamycin treatment
HEK 293T cells [2]
  sensitivity to Rapamycin and AZD8055 upon JIB-04 co-treatment: enhanced the effect of both Rapamycin and AZD8055; also recorded: more sensitive to Rapamycin and AZD8055 than cells treated with vehicle
[3]
  hypoxia-dependent copy gain of 1q12h: did significantly reduce hypoxia-dependent copy gain of 1q12h
RPE cells
  cell cycle profile: did not result in significant differences in cell cycle between normoxic and hypoxic cells
